According to PubChem BioAssay (NCI):
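Briefly, cells in 96-well plates were exposed to five compound concentrations for 48 h, and endpoints were estimated by linear interpolation. GI50 marks 50% less growth. The concentration for full growth arrest is given as TGI.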

Legend:
Assay in all cases: DTP human tumour cell line panel, 48 h
A498 renal = test system: A498 renal
COLO 205 colon = test system: COLO 205 colon
DU-145 prostate = test system: DU-145 prostate
EKVX NSCLC = test system: EKVX NSCLC
MDA-MB-231 breast = test system: MDA-MB-231 breast
NCI-H226 lung = test system: NCI-H226 lung
OVCAR-3 ovarian = test system: OVCAR-3 ovarian
SN12C renal = test system: SN12C renal
SNB-75 CNS = test system: SNB-75 CNS
SW-620 colon = test system: SW-620 colon

Row | Structure (SMILES) | GI50 (A498 renal) [µM] | TGI (A498 renal) [µM] | GI50 (COLO 205 colon) [µM] | TGI (COLO 205 colon) [µM] | GI50 (DU-145 prostate) [µM] | TGI (DU-145 prostate) [µM] | GI50 (EKVX NSCLC) [µM] | TGI (EKVX NSCLC) [µM] | GI50 (MDA-MB-231 breast) [µM] | TGI (MDA-MB-231 breast) [µM] | GI50 (NCI-H226 lung) [µM] | TGI (NCI-H226 lung) [µM] | GI50 (OVCAR-3 ovarian) [µM] | TGI (OVCAR-3 ovarian) [µM] | GI50 (SN12C renal) [µM] | TGI (SN12C renal) [µM] | GI50 (SNB-75 CNS) [µM] | TGI (SNB-75 CNS) [µM] | GI50 (SW-620 colon) [µM] | TGI (SW-620 colon) [µM]
1 | CC1(C)CC(O)CCCCCCOc2c(CN)cccc2NC(=O)c2nc(cnc2N)-c2ccc(cc2)S1(=O)=O (stereo not given) | 0.0151 | 0.84 | 0.394 | 2.08 | 0.0359 | 2.07 | 1.93 | 5.78 | 1.85 | 4.48 | 1.28 | 6.93 | 0.183 | 3.34 | 0.761 | 2.49 | 0.223 | 1.74 | 0.629 | 2.36
2 | c1cc(C2N3CCCN2CC3)ccn1 (stereo not given) | – | > 100 | – | > 100 | – | > 100 | – | > 100 | – | > 100 | – | > 100 | – | > 100 | – | > 100 | – | > 100 | – | > 100
3 | CC(C)(C)n1cc(-c2ccnc(NCCCNS(=O)(=O)c3ccc(Cl)cc3)c2)c(-c2cccc(O)c2)n1 | 1.51 | 3.72 | 1.66 | 3.39 | 2.75 | 7.63 | 2.04 | 5.36 | 1.87 | 3.87 | 2.11 | 5.04 | 1.89 | 3.72 | 1.65 | 3.1 | 1.37 | 3.03 | 1.77 | 3.56
4 | COc1ccc(Cn2cc3c(c2-c2ccccc2)CCc2cncnc2-3)cc1 | 4.87 | 17.4 | 4.44 | 17.2 | 14.2 | 33.7 | 4.5 | 29.3 | 5.12 | 18.3 | 11.5 | 26.7 | 3.65 | 12.5 | 5.85 | 20.9 | 3.98 | 13.5 | 3.65 | 13.9
5 | CCCCCCCCCCC(CN(CC)CC)C(O)c1ccccc1 (stereo not given) | 3.68 | 14.4 | 1.81 | 3.7 | 1.89 | 3.49 | 1.56 | 3.74 | 1.72 | 3.43 | 2.03 | 4.66 | 1.99 | 3.78 | 2.11 | 5.69 | 1.33 | 2.7 | 1.8 | 3.43
6 | Cc1ccc2oc(=O)cc(C3c4ccc([nH]4)C(c4cc(=O)oc5ccc(C)cc45)c4ccc([nH]4)C(c4cc(=O)oc5ccc(C)cc45)c4ccc([nH]4)C(c4cc(=O)oc5ccc(C)cc45)c4ccc3[nH]4)c2c1 (stereo not given) | 0.0275 | 0.248 | 0.165 | 0.353 | 0.0391 | 1.8 | 0.0632 | 4.48 | 0.125 | 0.818 | 0.0865 | 2.78 | 0.0225 | 0.0533 | 0.0586 | 1.74 | 0.0256 | 1.61 | 0.0352 | 3.34
